# US20080155704A1, “Methods and Compositions for Determining in vivo Activity of BiP” (King's College London, priority 2006, published 2008)
# How the values were obtained:
# IL-10 = IL-10 production by dendritic cell cultures (ELISA); format: cell-based, human; details: for IL-10 production: n=8
# Protocol: (§1) Supernatant samples were collected on day 1, 3 and 7 for iDC and from the final cultures of the T cells taken from the iDC/mDC-T cell allogeneic test system and set up with autologous cells to determine if there was any regulatory activity. The samples were aliquoted and frozen at −70° C. until required. Production IL-10 was quantified by ELISA using paired antibodies and recombinant standards (PharMingen, Oxford, UK) according to the recommendations of the manufacturer. In addition some were analysed by cytometric bead assay (BD, Oxford, UK) according to the manufacturers instructions.
# To neutralize IL-10 within the cultures anti-IL-10 antibody (ATCC, Rockville, USA) was added at day 0 (5 μg/ml) to GM-CSF and IL-4 treated cultures in the presence and absence of BiP (20 μg/ml). Two specific cell-permeable inhibitors of the MAPK intracellular signalling pathways were used. SB203580 (SB)(10 μM)((Calbiochem, Darmstadt, Germany) inhibits p38 MAPK, and PD98059 (PD) (10 μM)(Calbiochem), an inhibitor of MAPK extracellular signal regulated kinase (ERK), were tested. MO were pre-treated with the inhibitors for 2 h before adding GM-CSF and IL-4 in the presence or absence of BiP.
# as §1, with “of the pro-inflammatory cytokine, TNFα, and the anti-inflammatory cytokine, IL-10,” for “IL-10”
# [1] = test system: human rheumatoid arthritis synovial membrane (RASM); test: Human RASM transplanted in SCID mice (RASM/SCID chimeric mouse); format: in vivo, human tissue in SCID mice
# Protocol: Small pieces of human synovial tissue from patients with rheumatoid arthritis were transplanted into SCID mice. […] CD86, HLA-DR, TNFα and IL-6 expression was measured by immunohistology. (B) the weight of explants retrieved from the mice treated as indicated after 12d.
# This study used the previously developed SCID-HuRAg murine model (20). Briefly, pannus tissue, consisting of the leading edge of the invading synovial membrane into articular cartilage and bone, was collected as a single mass from RA patients at the time of arthroplastic surgery with full ethical approval. A block of 4-8 mm in diameter was implanted subcutaneously into the back of 6- to 7-week-old male SCID mice (CB.17/Icr; Charles River Japan, Tokyo, Japan), which had been bred under specific pathogen-free conditions. Successful implantation of human RA tissue was assessed visually 4 weeks after implantation, after which therapeutic manipulation of the mice was undertaken. […] The mice were sacrificed 12 days after injection to allow removal of the implanted tissue.
# The degree of synovial inflammation of the implanted tissue was assessed as previously described. The histological findings were scored according to two different scoring systems: Koizumi's (40) or Rooney's method (41).
# Paraffin embedded tissue sections were used for immunostaining for CD86 and HLA-DR. Frozen tissue sections were stained for the detection of cytokines (TNF, IL-1, IL-6, and IL-10). The tissue sections were blocked for endogenous peroxidase activity with 0.3% hydrogen peroxide in methanol for 15 min. Non-specific antibody binding was blocked with 10% normal goat serum for 1 hr at room temperature. The sections were incubated with specific antibody or normal IgG for 1 hr at 37° C. The sections incubated with anti-CD86 antibody were treated with biotinylated secondary antibody, then visualised using a kit (Vectastatin ABC kit, Vector) with 3-amino-n-ethylcarbazole (Nichirei, Tokyo) as a substrate. The other sections were treated with peroxidase-conjugated anti-mouse IgG (Histofine Simple Stain MAX PO; Nichirei, Tokyo) for 30 min at room temperature and developed with 3-amino-n-ethylcarbazole (Nichirei, Tokyo) for visualization. Sections were counterstained with Mayer haematoxylin for 10 sec and mounted in aqueous permanent mounting solution (Nichirei, Tokyo).
# The serum levels of human IL-4, IL-6 and IL-10 were measured by a quantitative sandwich enzyme immunoassay technique (Quantikine HS, R&D systems) according to the manufacturer's instructions.
# T cells = test: Regulatory markers on T cells co-cultured with BiP-treated dendritic cells; format: cell-based, human
# Protocol: FIG. 11: Co-culture of T cells with BiP-treated dendritic cells (DC) upregulates regulatory markers. […] Mean ±standard deviation of three experiments is shown.
# Intracellular staining was carried out with fixed cells incubated with 1% paraformaldehyde in IF buffer for 5 minutes at room temperature. The cells were washed twice with IF buffer containing 0.3% saponin for permeabilization. 0.3% saponin was then present in all IF buffer used thereafter. CTLA-4/CD152 (BD), FoxP3 (eBioscience) and indolamine 2,3-dioxygenase (Santa Cruz) and cytokines required intracellular staining. Antibodies were added at the pre-determined optimal concentration for 20 mins and then the cells were washed twice with IF buffer and analysed. Isotype controls, IgG1 and IgG2a (Becton Dickinson, Oxford, UK) were used in parallel. Cells were analysed on a FACScan cytometer using Cellquest software (Becton Dickinson, Oxford, UK).
# T cells were purified from peripheral blood mononuclear cells and set up in culture with either allogeneic or autologous dendritic cells, which had been washed and irradiated, at a ratio of 10 T cells:1 DC. The cells were co-cultured in a 24 well plate in 1 ml/well, in RPMI 1640 supplemented with 10% foetal calf serum, for 4 days then the T cells were removed and washed before being investigated for the presence of T regulatory cells (see below)
# Immunofluorescent staining was performed, as described previously (39), on DC harvested at day 7, T cells after 4 days co-culture with DC. Saturating concentrations of fluorescein isothiocyanate (FITC)-, phycoerythrin (PE) or peridium chlorophyll (Per-CP)-conjugated mAb were added recognizing CD14, CD86, CD80, HLA-DR, CD11c, CD1a, CD83, CD85j, IL-10 receptor; purity of the negatively selected MO and T cells was checked using CD3, CD4, CD14, CD20 and CD57 (all from Becton Dickinson/PharMingen (BD), Oxford, UK). Intracellular staining was carried out following fixation of cells with 1% paraformaldehyde for 5 minutes. Cells were then washed with immunofluorescence buffer (PBS/0.1% BSA/0.05% azide) containing 0.3% saponin. 0.3% saponin was then present in all solutions thereafter. CD152/CTLA-4 (BD, Oxford UK) and IDO (Santa Cruz, Autogen Bioclear, UK) were intracellular stains. Isotype controls, IgG1 and IgG2a (BD, Oxford, UK) were used in parallel. Cells were analysed on a FACScan/FACScalibur cytometers using Cellquest software (BD, Oxford, UK).
# [2] = 10 μg/mouse single i.v. injection, 12 days
# [3] = BiP 10 μg/animal i.v., 12d (FIG. 15A)
substance,measurement,setting,value
BiP: 78 kD endoplasmic reticulum chaperone protein as disclosed in WO 00/21995; recombinant human protein,IL-10 production by early DC(BiP) cultures,"IL-10; 3d GM-CSF and IL-4 with BiP 20 μg/ml, inhibitors 10 μM, anti-IL-10 added at day 0 (FIG. 13D)",significantly more IL-10
same,IL-10 production,"IL-10; iDC(BiP), 7d culture",819.1 ± 688 pg/mL
same,IL-10 production,"IL-10; mDC(BiP), 7d culture with LPS final 2d",970.1 ± 684 pg/mL
same,IL-10 production by BiP-treated DC,IL-10; versus untreated DC (FIG. 1),significantly more IL-10
same,human IL-6 in mouse sera,"[1]; 10 μg/mouse i.v., 12 days",0.5 ± 0.2 pg/mL
same,Koizumi score of synovial inflammation,[1]; [2],6.1±2.6
same,Rooney score of synovial inflammation,[1]; [2],16±6
same,IL-10 in explants,"[1]; BiP 10 μg/animal i.v., 12d",no increase in IL-10 was detected
same,expression of CD86 and HLA-DR in explant sections (immunohistology),[1]; [3],Significantly reduced expression of CD86 and HLA-DR
same,production of human TNFα and IL-6 in explants (immunohistology),[1]; [3],decreased production of human TNFα and IL-6
same,intracellular CTLA-4 in T cells in contact with mDC(BiP),T cells; FIG. 11B,significant upregulation of intracellular CTLA-4
same,T cell surface expression for CD4CD25hiCD27hi,"T cells; after 4d contact with mDC(BiP), n=5",2.5±0.2%
same,intracellular CTLA-4/CD152 in T cells,"T cells; after contact with BiP treated DC, n=4",31±12
same,cell surface CCR4 on T cells,"T cells; after contact with mDC(BiP), n=4",17.3±2.0%
